The text below walks through data of US20040224958A1, “Pyridopyrimidinone derivatives for treatment of neurodegenerative disease” (priority 2000, published 2004).

Where two headings read alike, the source gives them in different places.

The target in one assay is cdk4/D (Homo sapiens, UniProt P11802). Nature of the assay: Cyclin-Dependent Kinase 4 (cdk4) Assay. Particulars: read-out: cdk4/D IC50. The assay is classed as biochemical.
The target of a further assay is Cdk5/p25 (Homo sapiens, UniProt Q00535). Nature of the assay: Cyclin-Dependent Kinase 5 High Throughput Screening (cdk5-HTS) Assay. Format: biochemical. Particulars: high throughput screen. The procedure, abridged:
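IC50 determined from 33P incorporation into GST-RbCOOH captured on glutathione plates and read by scintillation counting. Reaction: 1.0 μg/mL Cdk5/p25, 20 μM [γ33P]ATP, pH 7.4 Tris buffer with MgCl2 and DTT, 30 min at room temperature, stopped with EDTA.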

The next assay has as its target cdk2/cyclinE (Homo sapiens, UniProt P24941). The experiment in a line: Cyclin-Dependent Kinase Assay cdk2/cyclinE.
A further assay has as its target cdk2/cyclinA (Homo sapiens, UniProt P24941). The experiment in a line: Cyclin-Dependent Kinase Assay cdk2/cyclinA.
A further assay concerns the target cdc2/cyclinB (Homo sapiens, UniProt P06493). Nature of the assay: Cyclin-Dependent Kinase Assay cdc2/cyclinB.

Chain of cdc2/cyclinB (P06493 whole entry): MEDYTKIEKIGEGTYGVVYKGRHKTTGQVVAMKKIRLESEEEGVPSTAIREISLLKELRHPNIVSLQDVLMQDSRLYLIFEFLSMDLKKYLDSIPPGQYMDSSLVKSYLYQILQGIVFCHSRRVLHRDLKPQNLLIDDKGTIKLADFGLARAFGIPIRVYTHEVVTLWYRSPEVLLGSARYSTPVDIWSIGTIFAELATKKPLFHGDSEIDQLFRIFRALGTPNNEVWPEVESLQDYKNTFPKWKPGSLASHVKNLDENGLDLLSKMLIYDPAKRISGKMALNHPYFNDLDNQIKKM
Chain of cdc2/cyclinB (P14635 whole entry, further chain): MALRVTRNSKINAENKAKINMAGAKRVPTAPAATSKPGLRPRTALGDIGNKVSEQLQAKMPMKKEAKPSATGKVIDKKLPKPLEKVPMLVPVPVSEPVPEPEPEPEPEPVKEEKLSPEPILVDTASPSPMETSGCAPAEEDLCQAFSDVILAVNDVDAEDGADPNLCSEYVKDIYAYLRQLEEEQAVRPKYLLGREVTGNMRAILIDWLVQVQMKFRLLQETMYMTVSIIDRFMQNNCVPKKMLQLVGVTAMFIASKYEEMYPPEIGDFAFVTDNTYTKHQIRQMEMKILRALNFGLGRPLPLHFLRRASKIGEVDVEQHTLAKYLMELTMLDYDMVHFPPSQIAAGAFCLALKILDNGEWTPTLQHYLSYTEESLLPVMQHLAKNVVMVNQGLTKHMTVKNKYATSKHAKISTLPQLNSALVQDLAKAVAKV
Chain of cdk4/D (P11802 whole entry): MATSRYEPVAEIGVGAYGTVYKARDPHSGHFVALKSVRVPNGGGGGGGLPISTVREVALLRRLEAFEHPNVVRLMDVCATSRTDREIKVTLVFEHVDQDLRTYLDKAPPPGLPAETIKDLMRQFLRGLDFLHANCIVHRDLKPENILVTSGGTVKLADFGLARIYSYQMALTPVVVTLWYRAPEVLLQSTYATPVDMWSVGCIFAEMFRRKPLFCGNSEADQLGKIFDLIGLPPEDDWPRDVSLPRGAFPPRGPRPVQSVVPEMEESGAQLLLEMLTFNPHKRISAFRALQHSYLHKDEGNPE
Chain of cdk4/D (P24385 whole entry, further chain): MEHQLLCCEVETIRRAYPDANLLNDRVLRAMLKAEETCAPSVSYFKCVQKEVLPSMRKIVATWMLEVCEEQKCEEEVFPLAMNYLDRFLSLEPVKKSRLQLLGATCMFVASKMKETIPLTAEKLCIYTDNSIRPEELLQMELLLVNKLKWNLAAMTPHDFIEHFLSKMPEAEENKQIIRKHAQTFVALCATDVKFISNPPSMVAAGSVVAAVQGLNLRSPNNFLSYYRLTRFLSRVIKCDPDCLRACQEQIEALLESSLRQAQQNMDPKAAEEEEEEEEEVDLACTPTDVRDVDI

Consider `CCC(C)n1c(=O)ccc2cnc(Nc3ccc(O)c(Cl)c3)nc21` (stereo not drawn) [Example 452, 8-sec-Butyl-2-(3-chloro-4-hydroxy-phenylamino)-8H-pyrido[2,3-d]pyrimidin-7-one], for which the IC50 at cdk4/D stood at 114 nM; on Cdk5/p25, 13 nM; on cdk2/cyclinE (cdk2/E IC50) it was 22 nM; on cdk2/cyclinA (cdk2/A IC50), 40 nM; at cdc2/cyclinB it was 25.5 nM.
On the same counts, the results for `CCC(C)n1c(=O)ccc2cnc(Nc3cccc([N+](=O)[O-])c3)nc21` (stereo not drawn) [Example 453, 8-sec-Butyl-2-(3-nitro-phenylamino)-8H-pyrido[2,3-d]pyrimidin-7-one] are 330 nM, 37 nM, 52.7 nM, 105 nM and 51.5 nM.
On the same counts, the results for `CCC(C)n1c(=O)ccc2cnc(Nc3ccc(OC)c(OC)c3)nc21` (stereo not drawn) [Example 454, 8-sec-Butyl-2-(3,4-dimethoxy-phenylamino)-8H-pyrido[2,3-d]pyrimidin-7-one] are 262 nM, 21.5 nM, 68.3 nM, 115 nM and 59.5 nM.
On the same counts, the results for `CCC(C)n1c(=O)ccc2cnc(Nc3ccc(OC)cc3)nc21` (stereo not drawn) [Example 455, 8-sec-Butyl-2-(4-methoxy-phenylamino)-8H-pyrido[2,3-d]pyrimidin-7-one] are 110 nM, 50.5 nM, 463 nM, 170 nM and 98.5 nM.
In the case of `CCC(C)n1c(=O)ccc2cnc(Nc3ccc(Cl)c(C)c3)nc21` (stereo not drawn) [Example 456, 8-sec-Butyl-2-(4-chloro-3-methyl-phenylamino)-8H-pyrido[2,3-d]pyrimidin-7-one], the IC50 on cdk4/D was 130 nM; at Cdk5/p25 it was 25 nM; on cdk2/cyclinE (cdk2/E IC50), 110 nM; against cdk2/cyclinA (cdk2/A IC50), 310 nM; against cdc2/cyclinB, 130 nM.
Turning to `CCC(C)n1c(=O)ccc2cnc(Nc3cc(OC)c(OC)c(OC)c3)nc21` (stereo not drawn) [Example 457, 8-sec-Butyl-2-(3,4,5-trimethoxy-phenylamino)-8H-pyrido[2,3-d]pyrimidin-7-one], the IC50 turned out to be 2400 nM at cdk4/D; 280 nM at Cdk5/p25; 250 nM at cdk2/cyclinE (cdk2/E IC50); 760 nM against cdk2/cyclinA (cdk2/A IC50); 340 nM against cdc2/cyclinB.
Take `CCC(C)n1c(=O)ccc2cnc(Nc3ccc(F)c(C(F)(F)F)c3)nc21` (stereo not drawn) [Example 458, 8-sec-Butyl-2-(4-fluoro-3-trifluoromethyl-phenylamino)-8H-pyrido[2,3-d]pyrimidin-7-one]: the IC50 is 1700 nM at cdk4/D; 29 nM against Cdk5/p25; 100 nM on cdk2/cyclinE (cdk2/E IC50); 280 nM at cdk2/cyclinA (cdk2/A IC50); 150 nM on cdc2/cyclinB.
In the same order, the values of `CCC(C)n1c(=O)ccc2cnc(Nc3cc([N+](=O)[O-])ccc3F)nc21` (stereo not drawn) [Example 459, 8-sec-Butyl-2-(2-fluoro-5-nitro-phenylamino)-8H-pyrido[2,3-d]pyrimidin-7-one] are 216 nM, 196 nM, 316 nM, 1200 nM and 491 nM.
In the same order, the values of `CCC(C)n1c(=O)ccc2cnc(Nc3ccc(F)c(Cl)c3)nc21` (stereo not drawn) [Example 460, 8-sec-Butyl-2-(3-chloro-4-fluoro-phenylamino)-8H-pyrido[2,3-d]pyrimidin-7-one] are 160 nM, 36 nM, 73 nM, 260 nM and 140 nM.
On the same counts, the results for `CCC(C)n1c(=O)ccc2cnc(Nc3cc(Cl)c(Cl)c(Cl)c3)nc21` (stereo not drawn) [Example 461, 8-sec-Butyl-2-(3,4,5-trichloro-phenylamino)-8H-pyrido[2,3-d]pyrimidin-7-one] are 550 nM, 82 nM, 780 nM, 1800 nM and 460 nM.
Take `CCC(C)n1c(=O)ccc2cnc(Nc3cc(OC)cc(C(F)(F)F)c3)nc21` (stereo not drawn) [Example 463, 8-sec-Butyl-2-(3-methoxy-5-trifluoromethyl-phenylamino)-8H-pyrido[2,3-d]pyrimidin-7-one]: the IC50 on cdk4/D was determined as 250 nM; against Cdk5/p25, 180 nM; against cdk2/cyclinE (cdk2/E IC50), 660 nM; against cdk2/cyclinA (cdk2/A IC50), 2000 nM; against cdc2/cyclinB, 300 nM.
In the same order, the values of `CCC(C)n1c(=O)ccc2cnc(Nc3ccc(I)c(Cl)c3)nc21` (stereo not drawn) [Example 464, 8-sec-Butyl-2-(3-chloro-4-iodo-phenylamino)-8H-pyrido[2,3-d]pyrimidin-7-one] are 150 nM, 17 nM, 130 nM, 310 nM and 170 nM.
On to `CCC(C)n1c(=O)ccc2cnc(Nc3ccc(C)c(I)c3)nc21` (stereo not drawn) [Example 465], for which the IC50 on cdk4/D was found to be 100 nM; at Cdk5/p25, 8.8 nM; on cdk2/cyclinE (cdk2/E IC50) it was 56 nM; against cdk2/cyclinA (cdk2/A IC50) it was 260 nM; against cdc2/cyclinB, 76 nM.
Take `CCC(C)n1c(=O)ccc2cnc(Nc3ccc(C)c(Cl)c3)nc21` (stereo not drawn) [Example 467, 8-sec-Butyl-2-(3-chloro-4-methyl-phenylamino)-8H-pyrido[2,3-d]pyrimidin-7-one]: the IC50 was 96 nM at cdk4/D; 8 nM against Cdk5/p25; 97 nM at cdk2/cyclinE (cdk2/E IC50); 270 nM on cdk2/cyclinA (cdk2/A IC50); 190 nM at cdc2/cyclinB.
On the same counts, the results for `CCC(C)n1c(=O)ccc2cnc(Nc3ccc(Cl)c(C(F)(F)F)c3)nc21` (stereo not drawn) [Example 468, 8-sec-Butyl-2-(4-chloro-3-trifluoromethyl-phenylamino)-8H-pyrido[2,3-d]pyrimidin-7-one] are 950 nM, 26.5 nM, 330 nM, 530 nM and 340 nM.
For the molecule `CCC(C)n1c(=O)ccc2cnc(Nc3cccc(S(N)(=O)=O)c3)nc21` (stereo not drawn) [Example 469, 3-(8-sec-Butyl-7-oxo-7,8-dihydro-pyrido[2,3-d]pyrimidin-2-ylamino)-benzenesulfonamide], the IC50 on cdk4/D amounted to 30 nM; against Cdk5/p25, 9.6 nM; against cdk2/cyclinE (cdk2/E IC50), 46 nM; against cdk2/cyclinA (cdk2/A IC50) it was 240 nM; at cdc2/cyclinB it was 90 nM.
For `CCC(C)n1c(=O)ccc2cnc(Nc3ccc4c(c3)CCCC4=O)nc21` (stereo not drawn) [Example 470, 8-sec-Butyl-2-(5-oxo-5,6,7,8-tetrahydro-naphthalen-2-ylamino)-8H-pyrido[2,3-d]pyrimidin-7-one], the IC50 amounted to 110 nM at cdk4/D; 6.1 nM against Cdk5/p25; 50 nM against cdk2/cyclinE (cdk2/E IC50); 150 nM against cdk2/cyclinA (cdk2/A IC50); 67 nM against cdc2/cyclinB.
For `CCC(C)n1c(=O)ccc2cnc(Nc3ccc(N(C)C(C)=O)cc3)nc21` (stereo not drawn) [Example 471, N-[4-(8-sec-Butyl-7-oxo-7,8-dihydro-pyrido[2,3-d]pyrimidin-2-ylamino)-phenyl]-N-methyl-acetamide], the IC50 was found to be 120 nM on cdk4/D; 49 nM at Cdk5/p25; 220 nM against cdk2/cyclinE (cdk2/E IC50); 530 nM against cdk2/cyclinA (cdk2/A IC50); 340 nM at cdc2/cyclinB.
For `CCC(C)n1c(=O)ccc2cnc(Nc3cc(F)cc(F)c3)nc21` (stereo not drawn) [Example 472, 8-sec-Butyl-2-(3,5-difluoro-phenylamino)-8H-pyrido[2,3-d]pyrimidin-7-one], the IC50 at cdk4/D is 370 nM; on Cdk5/p25 it was 52 nM; against cdk2/cyclinE (cdk2/E IC50), 200 nM; against cdk2/cyclinA (cdk2/A IC50), 150 nM; against cdc2/cyclinB, 250 nM.
`CCC(C)n1c(=O)ccc2cnc(Nc3ccc(C#N)cc3)nc21` (stereo not drawn) [Example 474, 4-(8-sec-Butyl-7-oxo-7,8-dihydro-pyrido[2,3-d]pyrimidin-2-ylamino)-benzonitrile]: the IC50 at cdk4/D stood at 210 nM; against Cdk5/p25, 41 nM; against cdk2/cyclinE (cdk2/E IC50), 140 nM; at cdk2/cyclinA (cdk2/A IC50), 110 nM; against cdc2/cyclinB, 240 nM.
Turning to `CCC(C)n1c(=O)ccc2cnc(Nc3ccc(F)c([N+](=O)[O-])c3)nc21` (stereo not drawn) [Example 475, 8-sec-Butyl-2-(4-fluoro-3-nitro-phenylamino)-8H-pyrido[2,3-d]pyrimidin-7-one], the IC50 stood at 1400 nM on cdk4/D; 480 nM against Cdk5/p25; 820 nM on cdk2/cyclinE (cdk2/E IC50); 1500 nM on cdk2/cyclinA (cdk2/A IC50); 1100 nM on cdc2/cyclinB.
Take `CCC(C)n1c(=O)ccc2cnc(Nc3ccc(C)c(C)c3)nc21` (stereo not drawn) [Example 476, 8-sec-Butyl-2-(3,4-dimethyl-phenylamino)-8Hi-pyrido[2,3-d]pyrimidin-7-one]: the IC50 at cdk4/D turned out to be 230 nM; on Cdk5/p25, 31 nM; against cdk2/cyclinE (cdk2/E IC50), 200 nM; on cdk2/cyclinA (cdk2/A IC50), 160 nM; on cdc2/cyclinB, 170 nM.
On to `CCC(CC)n1c(=O)ccc2cnc(Nc3ccc(F)c(Cl)c3)nc21` [Example 481, 2-(3-Chloro-4-fluoro-phenylamino)-8-(1-ethyl-propyl)-8H-pyrido[2,3-d]pyrimidin-7-one], for which the IC50 was 938 nM at cdk4/D; 39.1 nM at Cdk5/p25; 69.3 nM against cdk2/cyclinE (cdk2/E IC50); 418 nM against cdk2/cyclinA (cdk2/A IC50); 134 nM against cdc2/cyclinB.
`CCC(CC)n1c(=O)ccc2cnc(Nc3ccc(C)c(F)c3)nc21` [Example 482, 8-(1-Ethyl-propyl)-2-(3-fluoro-4-methyl-phenylamino)-8H-pyrido[2,3-d]pyrimidin-7-one]: the IC50 turned out to be 166 nM at cdk4/D; 63.2 nM on Cdk5/p25; 152 nM against cdk2/cyclinE; 597 nM on cdk2/cyclinA; 214 nM on cdc2/cyclinB.
